Experimental data reported in patent publication US9657003B2, “Androgen receptor modulating compounds” (ORION CORPORATION, priority 2009, dated 2017).

These molecules were tested against human AR (Homo sapiens (Human), UniProt P10275) (assay: Agonism in AR overexpressing hAR/HEK293 cells, reporter gene assay). Conditions: % of testosterone-induced AR activity at 10 μM concentration.
Chain of human AR (P10275 whole entry): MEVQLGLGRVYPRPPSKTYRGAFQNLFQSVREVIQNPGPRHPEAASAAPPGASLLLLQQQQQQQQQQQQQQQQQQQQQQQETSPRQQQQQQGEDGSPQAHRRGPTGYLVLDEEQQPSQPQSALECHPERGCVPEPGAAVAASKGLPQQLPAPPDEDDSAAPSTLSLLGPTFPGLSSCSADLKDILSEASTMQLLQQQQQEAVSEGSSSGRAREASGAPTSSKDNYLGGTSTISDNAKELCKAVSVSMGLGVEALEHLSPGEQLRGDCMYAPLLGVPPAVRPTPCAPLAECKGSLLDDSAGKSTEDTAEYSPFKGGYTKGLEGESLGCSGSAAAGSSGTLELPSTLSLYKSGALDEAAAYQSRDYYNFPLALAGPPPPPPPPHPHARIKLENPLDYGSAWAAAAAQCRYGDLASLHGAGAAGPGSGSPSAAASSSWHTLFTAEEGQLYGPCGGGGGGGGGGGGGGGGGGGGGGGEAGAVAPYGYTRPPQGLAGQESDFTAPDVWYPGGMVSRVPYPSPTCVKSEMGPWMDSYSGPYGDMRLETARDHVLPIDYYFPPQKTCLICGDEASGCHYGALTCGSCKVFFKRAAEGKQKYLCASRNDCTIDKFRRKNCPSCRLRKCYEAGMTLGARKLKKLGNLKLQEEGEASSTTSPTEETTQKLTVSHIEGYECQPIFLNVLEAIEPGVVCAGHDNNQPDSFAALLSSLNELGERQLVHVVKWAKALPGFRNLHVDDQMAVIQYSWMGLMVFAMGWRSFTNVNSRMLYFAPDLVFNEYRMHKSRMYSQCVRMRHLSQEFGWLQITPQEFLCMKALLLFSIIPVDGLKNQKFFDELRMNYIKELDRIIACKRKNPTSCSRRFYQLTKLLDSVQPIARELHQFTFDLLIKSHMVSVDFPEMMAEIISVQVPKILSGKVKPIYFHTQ
Format: cell-based
Procedure: AR agonism of the test compound in AR overexpressing hAR/HEK293 cells was measured as % of testosterone-induced AR activity at 10 μM concentration,
Agonism of test compounds in AR overexpressing cells was measured by reporter gene assay in HEK293 cells stably transfected with an expression vector encoding full-length human AR and androgen responsive luciferase reporter gene construct. A clone expressing high levels of androgen receptor (5 times more than AR levels in AR-HEK293 cells) was selected to study agonism in AR overexpressing cells. To determine agonism, the cells were treated with increasing concentrations of the test compound. The final DMSO concentration was 1%. The test compounds were studied in triplicates and luciferase activity was determined as described above.
For `C[C@@H](Cn1ccc(-c2ccc(C#N)c(Cl)c2)n1)NC(=O)c1[nH]nc2c1COCC2` [Example 338, (S)—N-(1-(3-(3-chloro-4-cyanophenyl)-1H-pyrazol-1-yl)propan-2-yl)-2,4,6,7-tetrahydropyrano[4,3-c]pyrazole-3-carboxamide], the “Agonism in AR overexpressing cells (%)” value was 25%.
For `CC(O)c1cc(C(=O)N[C@@H](C)Cn2ccc(-c3ccc(C#N)c(Cl)c3)n2)[nH]n1` (stereo partly drawn) [Example 56, N—((S)-1-(3-(3-chloro-4-cyanophenyl)-1H-pyrazol-1-yl)-propan-2-yl)-3-(1-hydroxyethyl)-1H-pyrazole-5-carboxamide], the “Agonism in AR overexpressing cells (%)” value was 27%.
`Cc1cc(-c2ccn(C[C@H](C)NC(=O)c3cc(-c4ccco4)n[nH]3)n2)ccc1C#N` [Example 32, (S)—N-(1-(3-(4-cyano-3-methylphenyl)-1H-pyrazol-1-yl)propan-2-yl)-3-(furan-2-yl)-1H-pyrazole-5-carboxamide] was tested, and the “Agonism in AR overexpressing cells (%)” value was 39%.
For `C[C@@H](Cn1ccc(-c2cc(F)c(C#N)c(Cl)c2)n1)NC(=O)c1cn2cccnc2n1` [Example 324, (S)—N-(1-(3-(3-chloro-4-cyano-5-fluorophenyl)-1H-pyrazol-1-yl)propan-2-yl)imidazo[1,2-a]pyrimidine-2-carboxamide], the “Agonism in AR overexpressing cells (%)” value was 16%.
In the case of `C[C@H](CNC(=O)c1csc(CC#N)n1)n1ccc(-c2cc(F)c(C#N)c(F)c2)n1` [Example 222, (R)—N-(2-(3-(4-cyano-3,5-difluorophenyl)-1H-pyrazol-1-yl)propyl)-2-(cyanomethyl)thiazole-4-carboxamide], the “Agonism in AR overexpressing cells (%)” value is reported as 20%.
With `N#Cc1ccc(-c2ccn(CCNC(=O)c3cc(-c4cccnc4)n[nH]3)n2)cc1C#N` [Example 52, N-(2-(3-(3,4-dicyanophenyl)-1H-pyrazol-1-yl)ethyl)-3-(pyridin-3-yl)-1H-pyrazole-5-carboxamide] the “Agonism in AR overexpressing cells (%)” value was 40%.
For `CCc1noc(C(=O)N[C@@H](C)Cn2ccc(-c3ccc(C#N)c(Cl)c3)n2)n1` [Example 91, (S)—N-(1-(3-(3-chloro-4-cyanophenyl)-1H-pyrazol-1-yl)propan-2-yl)-3-ethyl-1,2,4-oxadiazole-5-carboxamide], the “Agonism in AR overexpressing cells (%)” value was 18%.
In the case of `Cc1nc(-c2cc(C(=O)N[C@@H](C)Cn3ccc(-c4ccc(C#N)c(Cl)c4)n3)n[nH]2)cs1` [Example 94, (S)—N-(1-(3-(3-chloro-4-cyanophenyl)-1H-pyrazol-1-yl)propan-2-yl)-5-(2-methylthiazol-4-yl)-1H-pyrazole-3-carboxamide], the “Agonism in AR overexpressing cells (%)” value is reported as 18%.
`CC(=O)c1cc(C(=O)N[C@@H](C)Cn2ccc(-c3ccc(C#N)c(Cl)c3)n2)[nH]n1` [Example 34, (S)-3-acetyl-N-(1-(3-(3-chloro-4-cyanophenyl)-1H-pyrazol-1-yl)propan-2-yl)-1H-pyrazole-5-carboxamide] was tested, and the “Agonism in AR overexpressing cells (%)” value was 39%.
With `C[C@H](Cn1ccc(-c2ccc(C#N)c(Cl)c2)n1)NC(=O)c1csc(N2CCOCC2)n1` [Example 132, (R)—N-(1-(3-(3-chloro-4-cyanophenyl)-1H-pyrazol-1-yl)propan-2-yl)-2-morpholinothiazole-4-carboxamide] the “Agonism in AR overexpressing cells (%)” value was 21%.
With `CC(=O)c1cc(C(=O)NC[C@H](C)n2ccc(-c3cc(F)c(C#N)c(F)c3)n2)[nH]n1` [Example 219, (S)-3-acetyl-N-(2-(3-(4-cyano-3,5-difluorophenyl)-1H-pyrazol-1-yl)propyl)-1H-pyrazole-5-carboxamide] the “Agonism in AR overexpressing cells (%)” value was 0%.
With `C[C@@H](Cn1ccc(-c2ccc(C#N)c(Cl)c2)n1)NC(=O)c1csc(-c2cn[nH]c2)n1` [Example 206, (S)—N-(1-(3-(3-chloro-4-cyanophenyl)-1H-pyrazol-1-yl)propan-2-yl)-2-(1H-pyrazol-4-yl)thiazole-4-carboxamide] the “Agonism in AR overexpressing cells (%)” value was >20%.
For `Cc1nc(C(=O)N[C@@H](C)Cn2ccc(-c3cc(F)c(C#N)c(Cl)c3)n2)c[nH]1` [Example 249, (S)—N-{1-[3-(3-Chloro-4-cyano-5-fluorophenyl)-1H-pyrazol-1-yl]propan-2-yl}-2-methyl-1H-imidazole-4-carboxamide], the “Agonism in AR overexpressing cells (%)” value was 34%.
For `CC(O)c1cc(C(=O)N[C@@H](C)Cn2ccc(-c3ccc(C#N)c(Cl)c3)n2)no1` (stereo partly drawn) [Example 124, N—((S)-1-(3-(3-chloro-4-cyanophenyl)-1H-pyrazol-1-yl)propan-2-yl)-5-(1-hydroxyethyl)isoxazole-3-carboxamide], the “Agonism in AR overexpressing cells (%)” value was 5%.
With `O=C(NCCc1ccc(-c2ccc(Cl)c(Cl)c2)o1)c1cc(C(=O)N2CCOCC2)n[nH]1` [Example 8, N-(2-(5-(3,4-dichlorophenyl)furan-2-yl)ethyl)-3-(morpholine-4-carbonyl)-1H-pyrazole-5-carboxamide] the “Agonism in AR overexpressing cells (%)” value was 0%.
`Cc1c(-c2ccn(C[C@H](C)NC(=O)c3csc(C(C)O)n3)n2)ccc(C#N)c1Cl` (stereo partly drawn) [Example 186, N—((S)-1-(3-(3-chloro-4-cyano-2-methylphenyl)-1H-pyrazol-1-yl)propan-2-yl)-2-(1-hydroxyethyl)thiazole-4-carboxamide] was tested, and the “Agonism in AR overexpressing cells (%)” value was >20%.
For `Cc1noc(C(=O)N[C@@H](C)Cn2ccc(-c3ccc(C#N)c(Cl)c3)n2)n1` [Example 103, (S)—N-(1-(3-(3-chloro-4-cyanophenyl)-1H-pyrazol-1-yl)propan-2-yl)-3-methyl-1,2,4-oxadiazole-5-carboxamide], the “Agonism in AR overexpressing cells (%)” value was 19%.

These molecules were tested on VCaP prostate cancer cell line (assay: Inhibition of mibolerone-induced VCaP cell proliferation (WST-1)). Conditions: Homo sapiens, mibolerone-induced (usually 0.1 nM) proliferation, 4-5 days.
Format: cell-based
Procedure: The IC50 value of the test compound for inhibition of mibolerone-induced VCaP cell proliferation was measured.
Cell Proliferation Assays
The ability of test compounds to inhibit prostate, cancer cell growth was studied by measuring inhibition of cell proliferation using androgen-sensitive VCaP prostate cancer cell line. […] Cell proliferation was measured using WST-1 Cell Proliferation Assay (Roche).
With `Cc1nc(C(=O)N[C@@H](C)Cn2ccc(-c3ccc(C#N)c(Cl)c3)n2)c[nH]1` [Example 248, (S)—N-{1-[3-(3-Chloro-4-cyanophenyl)-1H-pyrazol-1-yl]propan-2-yl}-2-methyl-1H-imidazole-4-carboxamide] the IC50 was 490 nM.
